From patent US20030103993A1, “HLA-DR2 binding peptides” (Corixa Corporation, priority 2000, published 2003)

Key:
[1] = system: SS8T cloned human T cells; experiment: T cell receptor occupancy assay: γ-IFN production by SS8T T cell clone (ELISA); format: cell-based; details: SS8T cells restricted to HLA-DR2 and MBP 84-102; 48 h incubation; text cites FIG. 2
Protocol: The Herpes saimiri virus (HSV) transformed SS8T human T cell clone was a generous gift from Dr. H. Wekerle. The clone is restricted to DR2 (DRB5*0101) and MBP (84-102) peptide. It was cultured in RPMI 1640 medium supplemented with 2 mM L-glutamine, 100 units/ml penicillin, 100 μg/ml streptomycin, 10% fetal bovine serum and 50 units/ml human recombinant IL-2 (rIL-2) at 37° C. (culture medium). Every alternate day, cells were transferred to fresh culture medium. Various peptides at different concentrations were incubated with the cells in a microtiter tissue culture plate at a density of 20,000 cells/200 μl/well in the absence of rIL-2. After 48 h of incubation at 37° C., the culture fluids were collected from each well to test for γ-IFN and TNF-β cytokines. The detection of γ-IFN was by Ab ELISA as described recently (Arimilli et a.l, J. Immunol. Methods 212:49-59 (1998)). For the detection of TNF-β, Nunc Maxisorb 96-well plates were coated with anti-human TNF-β mAb at a concentration of 0.5 μg/well and incubated at 4° C. overnight. The wells were blocked with 0.1% bovine serum albumin, and samples were incubated at RT for 2 h. A standard curve was generated by using recombinant human TNF-β with a dilution range of 500 to 0.01 ng/ml. […] The reaction was stopped by 2N sulfuric acid at 5 mm, and the absorbance was measured at 450 nm.

SS8T cells = experiment: T cell metabolic acidification rate (Cytosensor microphysiometer); format: cell-based, human
Source text: Freshly cultured SS8T cells were immobilized into microphysiometer cell capsules as described earlier (Arimilli et al., J. Immunol. Methods 212:49-59 (1998)) using low-melt agarose (Molecular Devices Corp., Sunnyvale, Calif.). Briefly, cells were rested from IL-2 pulsing for 2 days. Cells were counted and suspended in a serum-free loading medium (low-buffering RPMI 1640 containing 10% fatty acid free, endotoxin-free BSA). Cells were collected by centrifugation and resuspended at a concentration of 3×10^5 T cells per 7.5 μl of loading medium. Low-melt agarose (Molecular Devices Corp.), melted and stored at 37° C., was added to the suspended cells to a concentration of 2.5 μl per 7.5 μl. Ten μl of the agarose/cell mixture was immediately spotted into the center of the cell capsule cups (Molecular Devices Corp.) held in a 12 well culture plate. After 5 minutes, 2 ml of loading medium was placed in the capsule cup over the solidified agarose and a membrane insert was placed over the cells. The assembled cell capsule was loaded in the Cytosensor chamber at 37° C. and perfused at 50 μl per min with low-buffering RPMI 1640 medium containing […] but no added HEPES or bicarbonate. […]

HLA-DR2 = biological target: T1, HLA-DR2 (Homo sapiens, UniProt P01903+Q30154); experiment: Peptide/DR2 competitive binding assay (biotinylated MBP 83-102Y83 vs test peptide, ELISA)
T1 construct: DR2 molecules were purified from the human EBV-B cell line; endogenous in cells; host or cells: human EBV-B cell line
Protocol: DR2 molecules were purified from the human EBV-B cell line. […] Mab L243 (IgG2a) affinity chromatography. A 10 μM solution of affinity purified DR2 was biotinylated with 200 μM Biotin-XX-NHS in 0.25 NaHCO3/0.2% NP-40 for 1 hr. at room temperature.
The ability of peptides to bind HLA-DR2 was estimated by competitive peptide binding assay. Purified HLA-DR2 (2 μg/ml) was incubated with 50-fold excess Bt-MBP 83-102Y83 peptide in the presence or absence of test peptides. The ratio of Et-MEP 831-2Y83 peptide to the test peptide was 1:1. After incubation at 37° C. for 48 hrs, the complex was added to the wells coated with anti-DR antibody and incubated for 2 hours at 37° C. The wells were then washed and alkaline phosphatase-linked streptavidin was added and the reaction incubated for 1 hour at 37° C. The excess streptavidin was washed and the ELISA color was developed by using p-nitrophenol phosphate in 0.1M diethanolamine as substrate. The test peptide was considered to be the stronger binding peptide if the O.D was less than the O.D of Bt 83-102Y83 peptide in the absence of the test peptide.

Substance: Ac-GFGYGGRASDYKSAHKGFKG (Ac-GFGYGGRASDYKSAHKGFKG-NH2) [MBP 124-143 peptide, myelin basic protein peptide 124-143, control]
- γ-IFN production by SS8T cells exposed to peptide [1]: did not show any increase in γ-IFN production

Substance: Ac-YDENPVVHEKMVTPRTPP (Ac-YDENPVVHEKMVTPRTPP-NH2) [MBP 83-102 peptide, myelin basic protein peptide 83-102 with Y at position 83]
- stimulation of SS8T cells (extracellular acidification rate) (SS8T cells; SS8T cells immobilized in agarose, exposed to peptide, FIG. 3): increased level of extracellular acidification rate within 10 minutes
- γ-IFN production by SS8T cells exposed to peptide [1]: specific increase in γ-IFN production

Substance: GHIKSSISFMGM [peptide #1]
- activation of the MBP 83-102 specific T cells in the presence of increasing concentrations of test peptide (SS8T cells; competition with MBP peptide, increasing concentrations): decreasing activation of the hybridomas in a competitive manner
- inhibition of the binding of biotinylated MBP 83-102 to DR2 (HLA-DR2; purified DR2, 50-fold molar excess biotinylated MBP 83-102Y83, increasing concentrations of test peptide, FIG. 1): to the same extent as the unbiotinylated MBP 83-102 peptide
- affinity of binding to DR2 relative to MBP peptide (HLA-DR2; synthesized peptide, compared with MBP 84-102 peptide): comparatively in the same range as that of the MBP 83-102 peptide
